In article PMC8862293, “Quercetin mitigates rheumatoid arthritis by inhibiting adenosine deaminase in rats” (Molecular Medicine, 2022):
pIC50: −log10 of the molar value.

Molecular target: T1, adenosine deaminase (ADA) (Rattus norvegicus, UniProt Q920P6)
T1 construct: native enzyme partially purified from rat joint tissue
T1 sequence (Q920P6 2-352): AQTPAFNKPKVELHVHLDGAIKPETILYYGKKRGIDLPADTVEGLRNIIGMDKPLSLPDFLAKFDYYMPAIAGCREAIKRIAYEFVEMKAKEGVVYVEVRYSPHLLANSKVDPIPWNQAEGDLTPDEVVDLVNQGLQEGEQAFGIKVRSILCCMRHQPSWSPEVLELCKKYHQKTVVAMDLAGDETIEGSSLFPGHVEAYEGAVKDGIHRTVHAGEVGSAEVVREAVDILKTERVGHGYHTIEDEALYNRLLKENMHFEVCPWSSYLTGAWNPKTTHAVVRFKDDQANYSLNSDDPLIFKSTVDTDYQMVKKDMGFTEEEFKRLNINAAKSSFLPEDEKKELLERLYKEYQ
Test: Colorimetric (Giusti) ADA activity assay on partially purified rat joint enzyme; Lineweaver-Burk kinetics
Format: biochemical

O=c1c(O)c(-c2ccc(O)c(O)c2)oc2cc(O)cc(O)c12 [quercetin]
pIC50: 3.77
